# Measurements: patent US20160082036A1, “HYDROXYALKYL STARCH FOR THE TREATMENT OF CANCERS BY REDUCTION OF TUMOR GROWTH RATES” (Fresenius Kabi Deutschland GmbH, priority 2012, published 2016)
# Experiments:
# [1] = parameters: species or system NMRI:nu/nu mice; conditions: mouse, in vivo
# Procedure: Hydroxyethyl starch compounds were obtained from Fresenius Kabi Deutschland GmbH on Dec. 7, 2012 and were stored at room temperature until use. The compounds each were dissolved in saline to obtain 10% w/v solutions. The application was 400 μl/20 g mouse body weight for saline and HES solutions, while Docetaxel was given in a volume of 10 ml/kg as slow bolus. The route of administration was intravenously for all mice.
# Adult female NMRI:nu/nu mice (TACONIC Europe, Lille Skensved, Denmark) bred in the own (EPO) colony were used throughout the study. At the start of experiment they were 6-8 weeks of age.
# In study 3 mice were sacrificed when the tumor size reached more than 1.5 cm^3, or the tumors ulcereted. Study 3 was finished when the mean TV was in most groups larger than 1.0 cm^3.
# On the day of necropsy mice were sacrificed by cervical dislocation and inspected for gross organ changes.
# [2] = system: human breast cell carcinoma line MT-3; assay: Example 2: MT-3 xenograft tumor growth after single i.v. injection; assay type: in vivo
# Procedure: (§1) Summary: Mice were either treated with a single i.v. injection of docetaxel (Taxotere®) at a dose of 25 mg/kg or with the plasma expander Voluven® (20 ml/kg) or with HES 100/1.0 (approx. 740 mg/kg) dissolved in saline/EtOH to determine tumor growth and body weight over the course of the experiment.
# Docetaxel (available under the name Taxotere®) was obtained from Sanofi-Aventis Deutschland GmbH, (Lot CHB D9C895; Berlin, Germany) and was stored in the dark at −20° C. until use. […] HES 100/1.0 (as specified in table 2 above) was dissolved in saline/EtOH.
# (§2) The final solution of docetaxel was prepared immediately before injection by mixing an appropriate volume of the original stock solution provided by Sanofi (20 mg/ml) with saline (0.9% NaCl, B. Braun Melsungen AG, Melsungen, Germany) as indicated in the table 6 below. Saline was mixed with absolute ethanol to obtain an approx. 6.25% solution, the original vehicle of Taxotere®. Voluven® was used in the original formulation described above.
# (§3) Adult female NMRI:nu/nu mice (TACONIC Europe, Lille Skensved, Denmark) bred in the own (EPO) colony were used throughout the study.
# The MT-3 cell line was used for subcutaneous (s.c.) xenotransplantation in immune deficient female NMRI:nu/nu mice. The MT-3 breast carcinoma cell line was obtained from the tumor bank of the National Cancer Institute of the former USSR, WONZ, Moscow (Naundorf H. Rewasowa E. Fichtner I et al. Characterization of two human mammary carcinomas, MT-1 and MT-3, suitable for in vivo testing of ether lipids and their derivatives. Breast Cancer Res Treat. 1992; 23:87-95).
# The cells are cryo-preserved within the EPO tumor bank. Cells were thawed, expanded by in vitro culture and transplanted s.c. as cell suspension (5×10^6 tumor cells/mouse in 200 μl).
# On study day 0 each 5×10^6 tumor cells were transplanted s.c. into the flank of each mouse. The animals were monitored for tumor growth and when tumors were palpable, about day 7 after inoculation, mice were randomised into the treatment groups.
# (§4) The application volume was 10 ml/kg (approx. 200 μl/20 g mouse) mouse body weight for vehicle, HES 100/1.0 and docetaxel and 20 ml/kg for Voluven®. The route of administration was by intravenous (i.v.) injection into the tail vein.
# Individual tumor diameters were measured two times weekly with a calliper. Tumor volumes were calculated according to V=(length×(width)^2)/2. For calculation of the relative tumor volume (RTV) the tumor volumes at each measurement day were related to the day of first treatment. At each measurement day the median and mean tumor volumes per group and also the treated to control (T/C RTV) values in percent were calculated.
# Mice were sacrificed when tumors reached a mean size above 1 cm^3 per group. On the day of necropsy mice were sacrificed by cervical dislocation and inspected for gross organ changes.
# (§5) Statistical evaluation of was performed with the U-test of Mann and Whitney using the Windows program […] 6. A significance level of p<0.05 was used.
# [3] = Example 2: body weight and blood parameters of MT-3 tumor-bearing mice; assay type: in vivo, NMRI:nu/nu mice
# Procedure: as §1, §3, §4
# (§6) Individual body weights of mice were determined two times weekly and mean body weight per treatment group.
# (§7) Blood samples were drawn from the retro-orbital sinus under iso-flurane anaesthesia three days after the treatment. Blood samples of 50-100 μl were taken into tubes prepared with EDTA for haematological parameters from a subset of each group (generally 30-50%). The following parameters were determined: total leucocyte count (WBC), erythrocyte count (RBC), haemoglobin (HGB), haematocrit (HCT), mean corpuscular volume (MCV), mean corpuscular haemoglobin (MCH), mean corpuscular haemoglobin concentration (MCHC) and platelet count (PLT) using a Coulter Counter instrument.
# as §5
# [4] = system: human breast cell carcinoma line MT-3; assay: Example 1: MT-3 xenograft tumor growth after single i.v. injection; assay type: in vivo
# Procedure: (§8) Summary: Mice were either treated with a single i.v. injection of docetaxel (Taxotere®) at a dose of 25 mg/kg or with the plasma expander Voluven® (20 ml/kg) or with “HES 100/1.0” (approx. 740 mg/kg) dissolved in saline to determine tumor growth and body weight over the course of the experiment.
# Docetaxel (available under the name Taxotere®) was obtained from Sanofi-Aventis Deutschland GmbH, (Lot CHB D9C895; Berlin, Germany) and was stored in the dark at −20° C. until use. […] “HES 100/1.0” (as specified in table 2 above) was dissolved in saline.
# as §2, with “indicated in table 4” for “indicated in the table 6”, “in table 4 below. Saline” for “the table 6 below. Saline”
# as §3
# The MT-3 cell line was used for subcutaneous (s.c.) xenotransplantation in immune deficient female NMRI:nu/nu mice. […]
# On study day 0 each 5×10^6 tumor cells were transplanted s.c. into the flank of each mouse. The animals were monitored for tumor growth and when tumors were palpable, generally between day 7 and day 10 after transplantation, mice were randomised into the treatment groups. […]
# Individual tumor diameters were measured two times weekly with a calliper. Tumor volumes were calculated according to V=(length×(width)^2)/2. […] At each measurement day the median and mean tumor volumes per group and also the treated to control (T/C RTV) values in percent were calculated. […]
# [5] = Example 1: body weight and blood parameters of MT-3 tumor-bearing mice; assay type: in vivo, NMRI:nu/nu mice
# Procedure: as §8, §3, §4, §6, §7, §5
# [6] = blood drawn three days after single i.v. treatment
# [7] = single i.v. dose at day 7 after inoculation, MT-3 s.c. in NMRI:nu/nu mice, in cm3 (unit assumed)
compound,measurement,setting,value
CC(=O)O[C@@]12CO[C@@H]1C[C@H](O)[C@@]1(C)C(=O)[C@H](O)C3=C(C)[C@@H](OC(=O)[C@H](O)[C@@H](NC(=O)OC(C)(C)C)c4ccccc4)C[C@@](O)([C@@H](OC(=O)c4ccccc4)[C@H]21)C3(C)C [Docetaxel],body weight (in words),[1],moderate body weight loss
same,"general toxicity, clinical sign (in words)",[1]; iv,apathy
same,tumor size at day 8,[2]; day 8 after inoculation (day of dosing),0.0866 cm^3
same,Tumor volume (mean) cm^3/day 25,[2]; single i.v. dose at day 8 after inoculation,0.343 cm^3
same,tumor size at day 10,[2]; single i.v. dose day 8,0.1046 cm^3
same,tumor size at day 15,[2]; single i.v. dose day 8,0.1228 cm^3
same,tumor size at day 18,[2]; single i.v. dose day 8,0.1995 cm^3
same,tumor size at day 22,[2]; single i.v. dose day 8,0.2465 cm^3
same,tumor size at day 25,[2]; single i.v. dose day 8,0.3430 cm^3
same,inhibition of tumor growth (in words),"[2]; single i.v. treatment, compared to control group, table 8, FIG. 2",significant inhibition of tumor growth
same,body weight development (in words),"[3]; after single i.v. treatment, FIG. 1",Body weight loss
same,Platelets × 10^6 at day 11,[3]; [6],1500 ± 156 × 10^6
same,WBC × 10^6 at day 11,[3]; [6],4.80 ± 0.58 × 10^6
same,Tumor volume (mean) at day 34,[4]; [7],0.930 ± 0.395
same,Tumor volume (mean) nadir,[4]; [7],0.072 ± 0.047
same,inhibition of tumor growth (in words),"[4]; single i.v. treatment, compared to control group, FIG. 4",significant inhibition of tumor growth
same,body weight development (in words),"[5]; after single i.v. treatment, FIG. 3",Body weight loss
same,leucopenia (in words),"[5]; after single i.v. treatment, table 5",slight but significant leucopoenia
same,Platelets × 10^6 at day 10,[5]; [6],1418 ± 85 × 10^6
same,WBC × 10^6 at day 10,[5]; [6],3.09 ± 0.76 × 10^6
same,effect on platelet counts (in words),[5]; compared to saline+EtOH treated group,no significant effect on the platelet counts
